Assay results: patent US9000034B2, “Antibiotic composition containing erythorbyl laurate and its usage” (SNU R&DB Foundation, priority 2012, dated 2015)

Legend:
[1] = system: Escherichia coli O157:H7 (ATCC 35150); assay: Test for bacterial proliferation inhibitory effects (absorbance at 600 nm); type: cell-based; conditions: 37° C., 22 hours; FIG. 5
[2] = system: Salmonella typhimurium (ATCC 19586); assay: as above; conditions: 37° C., 22 hours; FIG. 5
[3] = system: Escherichia coli O157:H7 (ATCC 35150); assay: Test for apoptotic effects (viable colony count on selective media); type: cell-based; conditions: compared with erythorbic acid and lauric acid; FIG. 4
Procedure: (§1) Apoptotic effects of erythorbic acid, lauric acid, and erythorbyl laurate, which is a […] product of erythorbic acid and lauric acid and a material of interest in this experiment, on two kinds of Gram-negative bacteria and two kinds of Gram-positive bacteria were evaluated.
(§2) As selective media for antibiosis test, sorbitol MacConkey agar (SMAC) (available from Difco), Xylose Lysine Desoxycholate agar (XLD) (available from Difco), Oxford agar base with Bacto™ Oxford antimicrobial supplement (MOX) (available from Difco), and Baird-Parker Agar Base (BPA) (available from Difco) were used.
(§3) As bacterial strains, Escherichia coli O157:H7 (ATCC 35150), Salmonella typhimurium (ATCC 19586), Listeria monocytogenes (ATCC 19114), and Staphylococcus aureus (ATCC 27213) were prepared. Each of the bacterial strains was cultured in tryptic soy broth (Difco, Becton Dickinson, Sparks, Md., USA) for 24 hours at 37° C., centrifuged at 4000×g for 20 minutes at 4° C., and purified with buffered peptone water (BPW) (available from Difco). Each strain was prepared in the form of a bacterial suspension (10^6 CFU/ml).
(§4) For this experiment, first, 10 ml of erythorbic acid, 10 ml of lauric acid, and 10 ml of erythorbyl laurate were added to 0.1 ml of each bacterial suspension. The resulting solution was satisfactorily mixed using a vortex mixer for minutes. Thereafter, 1 ml of the resultant solution obtained by mixing each bacterial suspension and test compounds was mixed with 9 ml of sterilized peptone water. Then, the resulting mixture was diluted 1:10 using sterilized peptone water. 0.1 ml of the diluted solution was collected and plated on the selective media. The plated media were incubated at 37° C. for 24 hours, and then colonies grown in each plate were measured in log10 CFU/ml.

[4] = system: Listeria monocytogenes (ATCC 19114); assay: as above; type: cell-based
Procedure: as §1, §2, §3, §4

[5] = system: Salmonella typhimurium (ATCC 19586); assay: as above; type: cell-based; conditions: compared with erythorbic acid and lauric acid; FIG. 4
Procedure: as §1, §2, §3, §4

[6] = system: Staphylococcus aureus (ATCC 27213); assay: as above; type: cell-based
Procedure: as §1, §2, §3, §4

Staphylococcus aureus = assay: Test for bacterial proliferation inhibitory effects (absorbance at 600 nm); type: cell-based
Procedure: Meanwhile, as a result of examination of proliferation inhibition data of Staphylococcus aureus, a portion where an exponential phase of the bacteria starts was remarkably shown unlike Listeria monocytogenes. Thus, the concentration of erythorbyl laurate was further decreased and a growth curve of the bacteria was measured.

[7] = system: human intestinal epithelial cells INT-407
[8] = system: human intestinal epithelial cells INT-407; assay: Cytotoxicity test (MTT assay, cell viability); conditions: FIG. 7
Listeria monocytogenes = assay: Test for bacterial proliferation inhibitory effects (absorbance at 600 nm); conditions: 37° C., 22 hours; FIG. 5

| Structure (SMILES) | bacterial proliferation inhibitory effects [1] | bacterial proliferation inhibitory effects [2] | apoptotic effects [3] | apoptotic effects ([4]; FIG. 4) | viable cell count ([4]; above concentrations of 200 ppm) | apoptotic effects according to the concentration ([4]; up to 200 ppm) | apoptotic effects [5] | apoptotic effects ([6]; FIG. 4) | apoptotic effects according to the concentration ([6]; at a concentration of 200 ppm or higher) | bacterial proliferation inhibitory effects (Staphylococcus aureus; 37° C., 22 hours, FIG. 5) | growth curve of the bacteria as the concentration decreased (Staphylococcus aureus; decreasing concentration of erythorbyl laurate, FIG. 6) | cytotoxicity [7] | cell viability compared with erythorbic acid ([8]; 50 μM and 200 μM) | cell viability compared with ascorbyl palmitate ([8]; all the concentrations) | bacterial proliferation inhibitory effects (Listeria monocytogenes) |
| --- | --- | --- | --- | --- | --- | --- | --- | --- | --- | --- | --- | --- | --- | --- | --- |
| CCCCCCCCCCCC(=O)O [lauric acid] | insignificant bacterial proliferation inhibitory effects | insignificant bacterial proliferation inhibitory effects |  |  |  |  |  |  |  |  |  |  |  |  |  |
| O=C1O[C@H]([C@H](O)CO)C(O)=C1O [erythorbic acid] | insignificant bacterial proliferation inhibitory effects | insignificant bacterial proliferation inhibitory effects |  |  |  |  |  |  |  |  |  |  |  |  |  |
| CCCCCCCCCCCC(=O)OC[C@@H](O)[C@H]1OC(=O)C(O)=C1O [erythorbyl laurate] | insignificant bacterial proliferation inhibitory effects | insignificant bacterial proliferation inhibitory effects | insignificant | excellent apoptotic effects | 0.48 CFU/ml | apoptotic effects were increased in proportion to increase in the concentration | insignificant | excellent apoptotic effects | continuous apoptotic effects | effective bacterial proliferation inhibitory effects | an induction phase decreased and the exponential phase was observed earlier | no cytotoxicity | cell viability similar to that when erythorbic acid was used | higher cell viability | effective bacterial proliferation inhibitory effects |
